Laboratory results published in PubChem BioAssay (NCI).
Values joined by “and” are separate entries in the source; they are usually repeats but may differ in a detail not shown here. Identical values can stand only once.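 Briefly, cells in 96-well plates were exposed to five compound concentrations for 48 h, and endpoints were estimated by linear interpolation. GI50 is the concentration that inhibits growth by half. TGI is the concentration that stops growth completely.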

How the values were obtained:
Assay in all cases: NCI-60 cell line screen, 48 h
A498 renal = tested on: A498 renal
CAKI-1 renal = tested on: CAKI-1 renal
KM12 colon = tested on: KM12 colon
MDA-MB-231 breast = tested on: MDA-MB-231 breast
MDA-MB-435 = tested on: MDA-MB-435
NCI-H226 lung = tested on: NCI-H226 lung
OVCAR-5 ovarian = tested on: OVCAR-5 ovarian
SK-OV-3 ovarian = tested on: SK-OV-3 ovarian
SR leukemia = tested on: SR leukemia
U251 CNS = tested on: U251 CNS

Row | Compound | GI50 (A498 renal) | TGI (A498 renal) | GI50 (CAKI-1 renal) | TGI (CAKI-1 renal) | GI50 (KM12 colon) | TGI (KM12 colon) | GI50 (MDA-MB-231 breast) | TGI (MDA-MB-231 breast) | GI50 (MDA-MB-435) | TGI (MDA-MB-435) | GI50 (NCI-H226 lung) | TGI (NCI-H226 lung) | GI50 (OVCAR-5 ovarian) | TGI (OVCAR-5 ovarian) | GI50 (SK-OV-3 ovarian) | TGI (SK-OV-3 ovarian) | GI50 (SR leukemia) | TGI (SR leukemia) | GI50 (U251 CNS) | TGI (U251 CNS)
1 | Cn1cnc([N+](=O)[O-])c1S(=O)(=O)Oc1cccc2ccccc12 | 11.8 µM | 27.2 µM | 1.76 µM | 4.07 µM | 10.4 µM | 31.4 µM | 4.46 µM | 14 µM | 2.31 µM | 7.21 µM | 3.79 µM | 31 µM | 7.55 µM | 27.8 µM | 46.9 µM | > 100 µM | 1.74 µM | 4.57 µM | 8.89 µM | 34.7 µM
2 | COC1=CC(=O)C(C2CC(=O)c3c(O)cc(O)cc3O2)=CC1=O (stereo unspecified) |  | > 58 µM |  | 33.1 µM |  | 32.2 µM |  | 29.1 µM |  | 31.6 µM |  | 40.4 µM |  | 41.4 µM |  | > 93.9 µM |  | 15.6 µM |  | 37.1 µM
3 | COc1c(Cl)c(=O)oc2ccc(Cl)cc12 |  | > 100 µM |  | > 100 µM |  | > 100 µM |  | > 100 µM |  | > 100 µM |  | > 100 µM |  | > 100 µM |  | > 100 µM |  | > 100 µM |  | > 100 µM
4 | OCc1ccc(-c2ccc(-c3ccc(CO)s3)o2)s1 |  | 0.0278 µM |  | 0.061 µM |  | 85.3 µM |  | > 92.2 µM |  | 17.3 µM |  | 0.145 µM |  | 0.102 µM |  | 39.2 µM |  | 61.1 µM |  | 23.4 µM
5 | OC(c1nc2ccccc2[nH]1)C(O)C(O)C(O)c1nc2ccccc2[nH]1 (stereo unspecified) |  | > 100 µM |  | > 100 µM |  | > 100 µM |  | > 100 µM |  | > 100 µM |  | > 100 µM |  | > 100 µM |  | > 100 µM |  | > 100 µM |  | > 100 µM
6 | Cc1cc2c(cc1Cl)SC(N(N(C)C)S(=O)(=O)c1ccc(Cl)cc1)=NS2(=O)=O | 15.8 µM | 37.6 µM | 30.5 µM | 66.6 µM | 22.9 µM | > 100 µM | 22.5 µM | 55 µM | 33.2 µM | > 100 µM | 30.5 µM | 89.9 µM | 53.8 µM | > 100 µM | 33.8 µM | > 100 µM | 23.3 µM | 91.7 µM | 26.3 µM | > 100 µM
7 | NS(=O)(=O)c1cc(Br)c(N=Nc2ccc(O)c3ncccc23)c(Br)c1 |  | 67.9 µM |  | > 100 µM |  | > 100 µM |  | > 100 µM |  | > 100 µM |  | > 100 µM |  | > 100 µM |  | > 100 µM |  | > 100 µM |  | > 100 µM
8 | O=C(/C=C/c1ccc(Cl)cc1)c1ccc(Nc2ccnc3cc(Cl)ccc23)cc1 | > 44.7 µM | > 71.8 µM |  | > 100 µM | 4.61 µM | 44.3 µM | 20.3 µM | > 58.4 µM | 9.3 µM | > 100 µM | > 100 µM | > 100 µM | 22.1 µM | 68.5 µM | > 100 µM | > 100 µM | 0.565 µM | > 100 µM | 28.8 µM | > 100 µM
9 | COc1ccc(/C=C(/C#N)n2nnc3cccc(F)c32)cc1 | 1.22 µM | 4.1 µM | 0.733 µM | 11.8 µM | 0.519 µM | 4.54 µM | 1.37 µM | 3.84 µM | 0.18 µM | 0.471 µM | 2.87 µM | 53.8 µM | 1.82 µM | 4.56 µM |  |  | 0.48 µM | > 100 µM | 1.79 µM | > 100 µM
10 | C=C1C(=O)O[C@H]2[C@H]1CC/C(COC(=O)c1c[nH]c3ccccc13)=C\CC[C@@]1(C)O[C@@H]21 | 0.267 µM | 1.03 µM |  |  | 0.477 µM | 2.36 µM | 0.197 µM | 0.447 µM | 0.242 µM | 0.654 µM | 0.445 µM | 1.96 µM | 0.405 µM | 2.1 µM | 2.24 µM | 5.59 µM | 0.285 µM | 1.33 µM | 0.616 µM | 1.93 µM
11 | COc1cc(OC)cc(-c2cc(=O)c3c(OC)c(OC)c(OC)c(OC)c3o2)c1 |  | 89.6 µM |  | > 100 µM |  |  |  | > 100 µM |  | > 100 µM |  | > 100 µM |  | > 100 µM |  | 54.2 µM |  | > 100 µM |  | > 100 µM
12 | COc1ccc(-c2nnc(COc3ccc(NC(=O)Nc4cc(C(F)(F)F)cc(C(F)(F)F)c4)cc3F)o2)cc1 | 1.56 µM | 5.03 µM |  |  | 1.51 µM | 3.7 µM | 1.99 µM | 4.54 µM | 2.11 µM | 5 µM | 2.63 µM | 9.69 µM | 2.76 µM | 9.49 µM | 3.76 µM | 12.7 µM | 2.19 µM | 5.95 µM | 1.54 µM | 3.45 µM
13 | Cc1ccccc1S(=O)(=O)OC1NS(=O)(=O)c2ccccc21 (stereo unspecified) |  | > 100 µM |  | > 100 µM |  | > 100 µM |  | > 100 µM |  | > 100 µM |  |  |  | > 100 µM |  | > 100 µM |  | > 100 µM |  | > 100 µM
14 | CC[C@H](Nc1ncnc2nc[nH]c12)c1oc2ccccc2c(=O)c1-c1cccc(F)c1 |  |  | 14.7 µM | > 100 µM | 23.7 µM | > 100 µM | 16.6 µM | 50.3 µM | 18.7 µM | 70.7 µM | 30.3 µM | > 100 µM | 42.5 µM | > 100 µM | 24.1 µM | > 100 µM | 11.5 µM | 50 µM | 32.2 µM | > 100 µM
15 | CN(C)CCSC1=Nc2ccc(Cl)cc2C(c2ccccc2Cl)=NC1 | 18.7 µM and > 100 µM | 34.2 µM and > 100 µM | 15.1 µM and 79.5 µM | 31.5 µM and > 100 µM | 16.5 µM and 44.1 µM | 34.3 µM and > 100 µM | 10.7 µM and > 100 µM | 22.8 µM and > 100 µM |  | 28.4 µM and 38.7 µM |  |  | 18.6 µM and > 100 µM | 34.4 µM and > 100 µM | 16.9 µM and 63.1 µM | 33.6 µM and > 100 µM | 6.68 µM and 42 µM | > 100 µM | 13.6 µM and 89.5 µM | 28.1 µM and > 100 µM
